Measurements as given in patent US20230002359A1, “PESTICIDALLY ACTIVE FUSED BICYCLIC HETEROAROMATIC COMPOUNDS” (priority 2019, published 2023).

Key:
Type in all cases: in vivo
[1] = system: Diabrotica Balteata (Corn Root Worm); assay: Example B1: Diabrotica balteata (corn root worm), maize sprouts sprayed, L2 larvae; conditions: 96 h, application rate of 200 ppm, 4 days after infestation, L2 larvae, read-out: control in at least one of the two categories (mortality or growth inhibition)
Outline: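 Larvae at L2 stage, 6 to 10 per well, feed on dried, spray-treated maize sprouts set on agar. Evaluation after 4 days compares mortality and growth inhibition with untreated samples.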

[2] = system: Euschistus heros (Neotropical Brown Stink Bug); assay: Example B2: Euschistus heros (neotropical brown stink bug), soybean leaves sprayed, N2 nymphs; conditions: 120 h, application rate of 200 ppm, 5 days after infestation, N2 nymphs, read-out: control in at least one of the two categories (mortality or growth inhibition)
Protocol: Soybean leaves on agar in 24-well microtiter plates were sprayed with aqueous test solutions prepared from 10′000 ppm DMSO stock solutions. After drying the leaves were infested with N2 nymphs. The samples were assessed for mortality and growth inhibition in comparison to untreated samples 5 days after infestation.

[3] = system: Chilo suppressalis (Striped Rice Stemborer); assay: Example B3: Chilo suppressalis (striped rice stemborer), artificial diet, L2 larvae; conditions: 144 h, application rate of 200 ppm, 6 days after infestation, L2 larvae, read-out: control in at least one of the three categories (mortality, anti-feedant effect, or growth inhibition)
Outline: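 Scoring covers mortality, anti-feedant effect and growth inhibition at 6 days post-infestation, relative to untreated diet, with activity defined as at least one category above untreated. Test solutions were aqueous, made from 10'000 ppm DMSO stocks, and applied to artificial diet before drying and infestation with L2 larvae.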

[4] = system: Plutella xylostella (Diamond Back Moth); assay: Example B4: Plutella xylostella (diamond back moth), artificial diet, eggs, 24-well; conditions: 192 h, application rate of 200 ppm, 8 days after infestation, eggs, read-out: control in at least one of the two categories (mortality or growth inhibition)
Protocol: 24-well microtiter plates with artificial diet were treated with aqueous test solutions prepared from 10′000 ppm DMSO stock solutions by pipetting. After drying, Plutella eggs were pipetted through a plastic stencil onto a gel blotting paper and the plate was closed with it. The samples were assessed for mortality and growth inhibition in comparison to untreated samples 8 days after infestation.

[5] = system: Myzus persicae (Green Peach Aphid); assay: Example B6: Myzus persicae (green peach aphid) intrinsic activity, sucrose solution; conditions: 120 h, test rate of 12 ppm, 5 days after infestation, intrinsic activity, read-out: mortality
Protocol: Test compounds prepared from 10′000 ppm DMSO stock solutions were applied by pipette into 24-well microtiter plates and mixed with sucrose solution. The plates were closed with a stretched Parafilm. A plastic stencil with 24 holes was placed onto the plate and infested pea seedlings were placed directly on the Parafilm. The infested plate was closed with a gel blotting paper and another plastic stencil and then turned upside down. The samples were assessed for mortality 5 days after infestation.

[6] = system: Spodoptera littoralis (Egyptian Cotton Leaf Worm); assay: Example B7: Spodoptera littoralis (Egyptian cotton leaf worm), cotton leaf discs sprayed, L1 larvae; conditions: foliar, 72 h, application rate of 200 ppm, 3 days after infestation, L1 larvae, read-out: control in at least one of the three categories (mortality, anti-feedant effect, or growth inhibition)
Outline: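 Spray application onto agar-supported cotton leaf discs used aqueous solutions derived from 10′000 ppm DMSO stocks. Once dry, discs were infested with five L1 larvae and evaluated after 3 days for mortality, anti-feeding and growth inhibition relative to untreated controls.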

CC(c1nccnc1-n1nccn1)N(CC1CC1)c1ncnc2c(C(F)(F)F)cc(C(F)(F)F)cc12 (stereo not shown) [P.75, N-(cyclopropylmethyl)-N-[1-[3-(triazol-2-yl)pyrazin-2-yl]ethyl]-6,8-bis(trifluoromethyl)quina-zolin-4-amine]
≥ 80%: percent control (mortality or growth inhibition) at 200 ppm [1] | percent control (mortality or growth inhibition) at 200 ppm [2] | percent control (mortality, anti-feedant effect or growth inhibition) at 200 ppm [3] | percent control (mortality or growth inhibition) at 200 ppm [4]

CC(Nc1ncnc2c(Cl)cc(C(F)(F)F)cc12)c1ncnn1-c1ncccn1 (stereo not shown) [P.43, 8-chloro-N-[1-(2-pyrimidin-2-yl-1,2,4-triazol-3-yl)ethyl]-6-(trifluoromethyl)quinazolin-4-amine]
≥ 80%: percent control (mortality or growth inhibition) at 200 ppm [1] | percent control (mortality or growth inhibition) at 200 ppm [2] | percent control (mortality, anti-feedant effect or growth inhibition) at 200 ppm [3] | percent control (mortality or growth inhibition) at 200 ppm [4]

CC(Nc1ncnc2c(Br)cc(Cl)cc12)c1ncnn1-c1ncccn1 (stereo not shown) [P.171, 8-bromo-6-chloro-N-[1-(2-pyrimidin-2-yl-1,2,4-triazol-3-yl)ethyl]quinazolin-4-amine]
≥ 80%: percent control (mortality or growth inhibition) at 200 ppm [1] | percent control (mortality, anti-feedant effect or growth inhibition) at 200 ppm [3] | percent control (mortality or growth inhibition) at 200 ppm [4] | mortality at 12 ppm [5] | percent control (mortality, anti-feedant effect or growth inhibition) at 200 ppm [6]

CC(Nc1ncnc2c(OC(F)(F)F)cc(Br)cc12)c1nccnc1-c1ncccn1 (stereo not shown) [P.11, 6-bromo-N-[1-(3-pyrimidin-2-ylpyrazin-2-yl)ethyl]-8-(trifluoromethoxy)quina-zolin-4-amine]
≥ 80%: percent control (mortality or growth inhibition) at 200 ppm [1] | percent control (mortality, anti-feedant effect or growth inhibition) at 200 ppm [3] | percent control (mortality or growth inhibition) at 200 ppm [4] | mortality at 12 ppm [5] | percent control (mortality, anti-feedant effect or growth inhibition) at 200 ppm [6]

CC(c1nccnc1-c1ncccn1)N(C)c1ncnc2c(C(F)(F)F)cc(Cl)cc12 (stereo not shown) [P.132, 6-chloro-N-methyl-N-[1-(3-pyrimidin-2-ylpyrazin-2-yl)ethyl]-8-(trifluoromethyl)quinazolin-4-amine]
≥ 80%: percent control (mortality or growth inhibition) at 200 ppm [1] | percent control (mortality, anti-feedant effect or growth inhibition) at 200 ppm [3] | percent control (mortality or growth inhibition) at 200 ppm [4] | mortality at 12 ppm [5] | percent control (mortality, anti-feedant effect or growth inhibition) at 200 ppm [6]

COc1nc(N(CC2CC2)C(C)c2ncnn2-c2ncccn2)c2cc(C(F)(F)F)cc(Cl)c2n1 (stereo not shown) [P.36, 8-chloro-N-(cyclopropylmethyl)-2-methoxy-N-[1-(2-pyrimidin-2-yl-1,2,4-triazol-3-yl)ethyl]-6-(trifluoromethyl)quinazolin-4-amine]
≥ 80%: percent control (mortality or growth inhibition) at 200 ppm [1] | percent control (mortality or growth inhibition) at 200 ppm [2]

CC(c1ncnn1-c1ccc(OC(F)F)cn1)N(C)c1ncnc2c(C(F)(F)F)cc(Br)cc12 (stereo not shown) [P.194, 6-bromo-N-[1-[2-[5-(difluoromethoxy)-2-pyridyl]-1,2,4-triazol-3-yl]ethyl]-N-methyl-8-(trifluoromethyl)quinazolin-4-amine]
≥ 80%: percent control (mortality or growth inhibition) at 200 ppm [1] | percent control (mortality, anti-feedant effect or growth inhibition) at 200 ppm [3] | percent control (mortality or growth inhibition) at 200 ppm [4] | mortality at 12 ppm [5] | percent control (mortality, anti-feedant effect or growth inhibition) at 200 ppm [6]

CC(Nc1ncnc2c(C(F)(F)F)cc(Br)cc12)c1nccnc1-c1ncccn1 (stereo not shown) [P.133, 6-bromo-N-[1-(3-pyrimidin-2-ylpyrazin-2-yl)ethyl]-8-(trifluoromethyl)quinazolin-4-amine]
≥ 80%: percent control (mortality or growth inhibition) at 200 ppm [1] | percent control (mortality, anti-feedant effect or growth inhibition) at 200 ppm [3] | percent control (mortality or growth inhibition) at 200 ppm [4] | mortality at 12 ppm [5] | percent control (mortality, anti-feedant effect or growth inhibition) at 200 ppm [6]

CC(Nc1ncnc2c(OC(F)F)cc(Br)cc12)c1ncnn1-c1ncccn1 (stereo not shown) [P.243, 6-bromo-8-(difluoromethoxy)-N-[1-(2-pyrimidin-2-yl-1,2,4-triazol-3-yl)ethyl]quinazolin-4-amine]
≥ 80%: percent control (mortality or growth inhibition) at 200 ppm [1] | percent control (mortality, anti-feedant effect or growth inhibition) at 200 ppm [3] | percent control (mortality or growth inhibition) at 200 ppm [4] | mortality at 12 ppm [5] | percent control (mortality, anti-feedant effect or growth inhibition) at 200 ppm [6]
